# Measured values from patent US8937072B2, “Substituted cyanoaniline compounds, preparation and use thereof” (Sinochem Corporation, priority 2011, dated 2015).
# Like-named read-outs stand apart in the source and are kept apart here.
# How the values were obtained:
# rice blast = experiment: microbe, parasite or virus in culture; type: cell-based; conditions: for the inhibition rate against rice blast (%) 0.03 mg/L: Table 21, 0.03 mg/L; for the inhibition rate against rice blast (%) 0.1 mg/L: Table 21, 0.1 mg/L; for the inhibition rate against rice blast (%) 0.3 mg/L: Table 21, 0.3 mg/L; for inhibition at 0.03 µg/mL: read-out: the inhibition rate against rice blast (%) 0.03 mg/L; for inhibition at 0.1 µg/mL: read-out: the inhibition rate against rice blast (%) 0.1 mg/L
# cucumber gray mold = experiment: Activity in vitro (96-well, High Through Put): inhibition rate against cucumber gray mold; type: cell-based; conditions: for inhibition at 25 µg/mL: dose 25 mg/L
# Procedure: The method is as followed: High Through Put is used in the test. The compound is dissolved in a proper solvent to become a testing solution whose concentration is designed. The solvent is selected from acetone, methanol, DMF and so on according to their dissolving capability to the sample. In a no animalcule condition, the testing solution and pathogens suspension are added into the cells of 96 cells culture board, which then should be placed in the constant temperature box. 24 hours later, pathogen germination or growth can be investigated by eyeballing, and the activity in vitro of the compound is evaluated based on germination or growth of control treatment.
# corn rust = experiment: Protectant activity in vivo (whole plant) against corn rust
# Method in brief: (§1)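 Whole plants sprayed with test solution, water plus 0.1% Tween-80 and no more than 5% solvent, then inoculated with the pathogen after 24 h. Plants held in humidity chamber or directly in greenhouse depending on fungus. Disease control scored by eye at about 7 days.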
# cucumber downy mildew = experiment: Protectant activity in vivo (whole plant) against cucumber downy mildew; conditions: for pest or weed control at 12.5 µg/mL / pest or weed control at 25 µg/mL / pest or weed control at 50 µg/mL / pest or weed control at 100 µg/mL: Cucumis sativus, 168 h
# Method in brief: as §1
# [1] = Pyricularia oryzae, read-out: inhibition rate against rice blast
# [2] = Pyricularia oryzae, read-out: the inhibition rate against rice blast (%) 0.3 mg/L
# [3] = 0.9 mg/L, read-out: the inhibition rate against cucumber gray mold (%)
# [4] = 2.8 mg/L, read-out: the inhibition rate against cucumber gray mold (%)
# [5] = 8.3 mg/L, read-out: the inhibition rate against cucumber gray mold (%)
# [6] = in vitro, dose 2.8 mg/L, read-out: inhibition rate against cucumber gray mold
# [7] = 25 mg/L, read-out: the protectant activity (%) against cucumber downy mildew
# [8] = 50 mg/L, read-out: the protectant activity (%) against cucumber downy mildew
# [9] = 100 mg/L, read-out: the protectant activity (%) against cucumber downy mildew
# [10] = dose 25 mg/L, read-out: protectant activity against cucumber downy mildew in vivo
# [11] = dose 50 mg/L, read-out: protectant activity against cucumber downy mildew in vivo
Compound,the inhibition rate against rice blast (%) 0.03 mg/L (rice blast) [%],the inhibition rate against rice blast (%) 0.1 mg/L (rice blast) [%],the inhibition rate against rice blast (%) 0.3 mg/L (rice blast) [%],the inhibition rate against cucumber gray mold (%) (cucumber gray mold; 0.3 mg/L),the inhibition rate against cucumber gray mold (%) (cucumber gray mold; 0.9 mg/L),the inhibition rate against cucumber gray mold (%) (cucumber gray mold; 2.8 mg/L),the inhibition rate against cucumber gray mold (%) (cucumber gray mold; 8.3 mg/L),protectant activity against cucumber downy mildew in vivo (cucumber downy mildew; dose 50 mg/L) [%],protectant activity against cucumber downy mildew in vivo (cucumber downy mildew; dose 100 mg/L) [%],protectant activity against cucumber downy mildew in vivo (cucumber downy mildew; dose 400 mg/L) [%],inhibition at 0.03 µg/mL (rice blast; Pyricularia oryzae) [%],inhibition at 0.1 µg/mL (rice blast; Pyricularia oryzae) [%],inhibition at 0.3 µg/mL (rice blast; [2]) [%],inhibition at 0.3 µg/mL (cucumber gray mold; 0.3 mg/L) [%],inhibition at 0.9 µg/mL (cucumber gray mold; [3]) [%],inhibition at 2.8 µg/mL (cucumber gray mold; [4]) [%],inhibition at 8.3 µg/mL (cucumber gray mold; [5]) [%],also measured
N#Cc1c(Cl)c(Cl)c(Nc2c(F)cc([N+](=O)[O-])cc2F)c(Cl)c1C#N [Compound A-43],100,100,100,100,100,100,100,–,–,–,–,–,–,–,–,–,–,protectant activity against corn rust in vivo (corn rust; dose 400 mg/L): 100%
N#Cc1c(Cl)c(Cl)c(Nc2c(Cl)cncc2Cl)c(Cl)c1C#N [Compound A-87],100,100,100,–,–,–,–,–,–,–,–,–,–,–,–,–,–,"inhibition rate against cucumber gray mold (cucumber gray mold; in vitro, dose 8.3 mg/L): 80%; the protectant activity (%) against corn rust (corn rust; 6.25 mg/L): 50%; the protectant activity (%) against corn rust (corn rust; 25 mg/L): 80%; the protectant activity (%) against corn rust (corn rust; 100 mg/L): 100%; the protectant activity (%) against corn rust (corn rust; 400 mg/L): 100%; protectant activity against corn rust in vivo (corn rust; dose 100 mg/L): 100%"
N#Cc1c(Cl)c(Cl)c(Nc2cc(C(F)(F)F)ccc2Cl)c(C#N)c1Cl [Compound B-29],0,50,100,–,50,80,80,100,100,100,–,–,–,–,–,–,–,"inhibition rate against cucumber gray mold (cucumber gray mold; in vitro, dose 8.3 mg/L): 80%; the protectant activity (%) against cucumber downy mildew (cucumber downy mildew; 12.5 mg/L): 30%; the protectant activity (%) against cucumber downy mildew (cucumber downy mildew; 25 mg/L): 100%; the protectant activity (%) against cucumber downy mildew (cucumber downy mildew; 50 mg/L): 100%; the protectant activity (%) against cucumber downy mildew (cucumber downy mildew; 100 mg/L): 100%; protectant activity against cucumber downy mildew in vivo (cucumber downy mildew; dose 25 mg/L): 100%"
N#Cc1c(Cl)c(Cl)c(Nc2ccc([N+](=O)[O-])cc2Cl)c(C#N)c1Cl [Compound B-35],50,80,100,100,100,100,100,98,100,100,–,–,–,–,–,–,–,the protectant activity (%) against cucumber downy mildew (cucumber downy mildew; 12.5 mg/L): 98%; the protectant activity (%) against cucumber downy mildew (cucumber downy mildew; 25 mg/L): 98%; the protectant activity (%) against cucumber downy mildew (cucumber downy mildew; 50 mg/L): 98%; the protectant activity (%) against cucumber downy mildew (cucumber downy mildew; 100 mg/L): 100%; protectant activity against cucumber downy mildew in vivo (cucumber downy mildew; dose 12.5 mg/L): 98%
N#Cc1c(Cl)c(Cl)c(Nc2c(F)cc([N+](=O)[O-])cc2Cl)c(C#N)c1Cl [Compound B-53],100,100,100,0,100,100,100,98,100,100,–,–,–,–,–,–,–,the protectant activity (%) against corn rust (corn rust; 6.25 mg/L): 30%; the protectant activity (%) against corn rust (corn rust; 25 mg/L): 50%; the protectant activity (%) against corn rust (corn rust; 100 mg/L): 80%; the protectant activity (%) against corn rust (corn rust; 400 mg/L): 100%
N#Cc1c(Cl)c(Cl)c(Nc2c(Cl)cc([N+](=O)[O-])cc2Cl)c(C#N)c1Cl [Compound B-54],0,0,100,100,100,100,100,100,100,100,–,–,–,–,–,–,–,"inhibition rate against rice blast (rice blast; in vitro, dose 0.3 mg/L): 80%; inhibition rate against cucumber gray mold (cucumber gray mold; in vitro, dose 0.3 mg/L): 80%; the protectant activity (%) against cucumber downy mildew (cucumber downy mildew; 25 mg/L): 75%; the protectant activity (%) against cucumber downy mildew (cucumber downy mildew; 50 mg/L): 100%; the protectant activity (%) against cucumber downy mildew (cucumber downy mildew; 100 mg/L): 100%; the protectant activity (%) against corn rust (corn rust; 6.25 mg/L): 65%; the protectant activity (%) against corn rust (corn rust; 25 mg/L): 80%; the protectant activity (%) against corn rust (corn rust; 100 mg/L): 90%; the protectant activity (%) against corn rust (corn rust; 400 mg/L): 100%; protectant activity against corn rust in vivo (corn rust; dose 400 mg/L): 100%"
N#Cc1c(Cl)c(Cl)c(C#N)c(Nc2c(F)cc([N+](=O)[O-])cc2F)c1Cl [Compound C-45],100,100,100,100,100,100,100,–,–,–,–,–,–,–,–,–,–,–
N#Cc1c(Cl)c(Cl)c(C#N)c(Nc2c(F)cc([N+](=O)[O-])cc2Cl)c1Cl [Compound C-46],100,100,100,100,100,100,100,–,–,–,–,–,–,–,–,–,–,protectant activity against corn rust in vivo (corn rust; dose 400 mg/L): 80%
COc1ccc(Nc2c(F)c(F)c(C#N)c(F)c2C#N)cc1 [KC10],–,–,–,–,–,–,–,–,–,–,0,0,0,0,0,0,80,inhibition at 0.3 µg/mL (rice blast; [1]): 0%; inhibition at 0.9 µg/mL (rice blast; [1]): 50%; inhibition at 2.8 µg/mL (cucumber gray mold; [6]): 0%; pest or weed control at 12.5 µg/mL (cucumber downy mildew; 12.5 mg/L): 0%; pest or weed control at 25 µg/mL (cucumber downy mildew; [7]): 0%; pest or weed control at 50 µg/mL (cucumber downy mildew; [8]): 10%; pest or weed control at 100 µg/mL (cucumber downy mildew; [9]): 20%; pest or weed control at 25 µg/mL (cucumber downy mildew; [10]): 0%; pest or weed control at 50 µg/mL (cucumber downy mildew; [11]): 10%
N#Cc1c(F)c(F)c(Nc2ccc([N+](=O)[O-])cc2)c(C#N)c1F [KC11],–,–,–,–,–,–,–,–,–,–,0,0,0,0,0,0,50,inhibition at 0.9 µg/mL (rice blast; [1]): 0%; inhibition at 2.8 µg/mL (cucumber gray mold; [6]): 0%; pest or weed control at 12.5 µg/mL (cucumber downy mildew; 12.5 mg/L): 0%; pest or weed control at 25 µg/mL (cucumber downy mildew; [7]): 0%; pest or weed control at 50 µg/mL (cucumber downy mildew; [8]): 0%; pest or weed control at 100 µg/mL (cucumber downy mildew; [9]): 0%; pest or weed control at 25 µg/mL (cucumber downy mildew; [10]): 0%; pest or weed control at 50 µg/mL (cucumber downy mildew; [11]): 0%
CN(C)c1ccc(Nc2c(Cl)c(Cl)c(C#N)c(Cl)c2C#N)cc1 [KC23],–,–,–,–,–,–,–,–,–,–,0,0,0,0,0,0,0,inhibition at 25 µg/mL (rice blast; [1]): 0%; inhibition at 25 µg/mL (cucumber gray mold; in vitro): 0%
CCOc1ccccc1Nc1c(F)c(F)c(C#N)c(C#N)c1F [KC26],–,–,–,–,–,–,–,–,–,–,0,0,0,0,0,0,0,"inhibition at 25 µg/mL (rice blast; [1]): 0%; inhibition at 25 µg/mL (cucumber gray mold; in vitro): 0%; pest or weed control at 6.25 µg/mL (corn rust; Zea mays, 168 h, 6.25 mg/L): 0%; pest or weed control at 25 µg/mL (corn rust; Zea mays, 168 h, 25 mg/L): 0%; pest or weed control at 100 µg/mL (corn rust; Zea mays, 168 h, 100 mg/L): 0%; pest or weed control at 400 µg/mL (corn rust; Zea mays, 168 h, 400 mg/L, read-out: the protectant activity (%) against corn rust): 0%; pest or weed control at 400 µg/mL (corn rust; Zea mays, 168 h, dose 400 mg/L, read-out: protectant activity against corn rust in vivo): 0%"
N#Cc1c(F)c(F)c(Nc2c(Cl)c(F)nc(F)c2Cl)c(F)c1C#N [KC28],–,–,–,–,–,–,–,–,–,–,0,0,0,0,0,0,0,"inhibition at 2.8 µg/mL (rice blast; [1]): 0%; inhibition at 8.3 µg/mL (rice blast; [1]): 50%; inhibition at 25 µg/mL (rice blast; [1]): 80%; inhibition at 8.3 µg/mL (cucumber gray mold; in vitro, dose 8.3 mg/L, read-out: inhibition rate against cucumber gray mold): 0%; inhibition at 25 µg/mL (cucumber gray mold; in vitro): 80%"
